From paper PMC6222558, “Synthesis and Evolution of Berberine Derivatives as a New Class of Antiviral Agents against Enterovirus 71 through the MEK/ERK Pathway and Autophagy” (Molecules : A Journal of Synthetic Chemistry and Natural …, 2018)
Where two headings read alike, the source gives them in different places.

Key:
[1] = test system: EV71 BrCr strain (VR-1775, genotype A); test: CPE inhibition assay for anti-EV71, BrCr strain; format: cell-based, enterovirus 71 (EV71); conditions: Enterovirus A, read-out: BrCr Strain IC50
Description: (§1) Thus, all newly synthesized BBR analogues were screened for their anti-EV71 potencies in African green monkey kidney (Vero) cells taking BBR as the positive control. EV71 strains used in the present study include different genotype strains, such as H strain (VR-1432, genotype C2), BrCr strain (VR-1775, genotype A), and JS-52 and SHZH98 (genotype C4). The potency against EV71 strains above mentioned of each tested compound was evaluated by the combination of its IC50 and selectivity index (SI) value as the important therapeutic indication.
(§2) Vero cells were purchased from the American Type Culture Collection (ATCC, […], MD, USA), and were cultured in Minimum Essential Medium (MEM) supplemented with 10% fetal bovine serum (FBS) (GIBCO, Grand Island, NY, USA) and antibiotics (100 U/mL penicillin and […] streptomycin) at 37 °C in a 5% CO2 incubator. EV71 strain SHZH98 isolated from the throat swab sample of an HFMD case occurring in 1998 in China was kindly provided by Dr. Qi Jin (Institute of Pathogen Biology, Chinese Academy of Medical Science and Peking Union Medical School, Beijing, China), and JS-52 strain was a kind gift from Dr. Xiangzhong Ye (Beijing Wantai Biological Pharmacy Enterprise Co., Ltd., Beijing, China). The EV71 BrCr and H strains were purchased from the ATCC. All of EV71 strains were passaged in Vero cells.
(§3) The anti-EV71 activities of all tested compounds were detected by the virus-induced CPE assay. Briefly, cells (3 × 10^4 cells/well) were plated into 96-well culture plates and incubated for 16 h. Then, remove the medium and infected cells with EV71 of 100 × TCID50 (50% tissue culture infective doses) in serum-free medium for 1 h at 37 °C. After that, the unbound viruses were removed and various concentrations of tested compounds were supplemented for incubation of another 72 h. […] TC50 defined as the concentration that leads to the 50% of CPE which determined by the same method in 72 h. In addition, the cells were stained the cells were colored with 0.5% crystal violet in 20% ethanol for 15 min at room temperature and the cells were imaged after rinsed with PBS.

[2] = test system: EV71 SHZH98 strain (genotype C4); test: CPE inhibition assay for anti-EV71, SHZH98 strain; format: cell-based, enterovirus 71 (EV71); conditions: Enterovirus A, read-out: SHZH98 Strain IC50
Description: as §1, §2, §3

[3] = test system: EV71 H strain (VR-1432, genotype C2); test: CPE inhibition assay for anti-EV71, H strain; format: cell-based, enterovirus 71 (EV71); conditions: for IC50: Enterovirus A, read-out: H Strain IC50; for anti-EV71 activity against H strain, in words: compared with BBR
Description: as §1, §2, §3

[4] = test system: EV71 JS-52 strain (genotype C4); test: CPE inhibition assay for anti-EV71, JS-52 strain; format: cell-based, enterovirus 71 (EV71); conditions: Enterovirus A, read-out: JS-52 Strain IC50
Description: as §1, §2, §3

Vero cells = test: Cytotoxicity assay (CCK) in Vero cells; format: cell-based, African green monkey; conditions: for TC50 (median toxic concentration): African green monkey, 48 h
Description: as §2
Cytotoxicity of all target compounds in Vero cells was analyzed by CCK (TransGen Biotech, Beijing, China) assay. In brief, cells in exponential phase (3 × 10^4 cells/well) were seeded into 96-well culture plates and incubated overnight. Then, the medium was removed and different concentrations of all target compounds were applied in duple. After 48 h incubation, the cytotoxicity of all target compounds was determined by CCK assay. The signals were read at 450 nm on Enspire (Perkin Elmer, Waltham, MA, USA). The TC50 was defined as the concentration that inhibits 50% cellular growth in comparison with the controls. It is calculated by the Reed and Muench method.

[5] = EV71, Vero cells, CPE, calculated on the organic part, n = 3

Compound | IC50 [1, 5] [µM] | IC50 [2, 5] [µM] | IC50 [3, 5] [µM] | IC50 [4, 5] [µM] | anti-EV71 activity against H strain, in words ([3]; Vero cells) | TC50 (median toxic concentration) (Vero cells) [µM] | cytotoxicity, in words (Vero cells) | IC50 ([1]; EV71, Vero) [µM] | IC50 ([2]; EV71, Vero) [µM] | IC50 ([3]; EV71, Vero) [µM] | IC50 ([4]; EV71, Vero) [µM]
COc1ccc2cc3[n+](cc2c1O)CCc1cc2c(cc1-3)OCO2 [compound 1] | 35.4 | 32.6 | 37 | 28.5 | decreased activity | 85.5 |  |  |  |  | 
COc1cc2c(cc1OC)-c1cc3ccc(OC)c(OCC(=O)C(C)(C)C)c3c[n+]1CC2 [4b, 2,3,10-Trimethoxy-9-pivalylmethylenoxy protoberberine chloride] | 144 | > 144 | > 144 | 109 |  | 333 |  |  |  |  | 
COc1ccc2cc3[n+](cc2c1OCC(=O)c1ccc(C)cc1)CCc1cc2c(cc1-3)OCO2 [2e, 2,3-Methylenedioxy-9-p-tolylformylmethylenoxy-10-methoxy protoberberine chloride] | 2.23 | 2.84 | > 5.31 | 2.67 |  | 14.4 |  |  |  |  | 
COc1ccc2cc3[n+](cc2c1OC(=O)OCc1ccccc1)CCc1cc2c(cc1-3)OCO2 [2h, 2,3-Methylenedioxy-9-benzyloxyformyloxy-10-methoxy protoberberine chloride] | 47.9 | > 47.9 | > 47.9 | > 47.9 | obvious decreased activity | 124 |  |  |  |  | 
CCOC(=O)Oc1c(OC)ccc2cc3[n+](cc12)CCc1cc2c(cc1-3)OCO2 [2i, 2,3-Methylenedioxy-9-ethyloxyformyloxy-10-methoxy protoberberine chloride] | 33.6 | 45.7 | 31.1 | 43.6 | obvious decreased activity | 167 |  |  |  |  | 
COc1cc2c(cc1OC)-c1cc3ccc(OC)c(OCC(=O)c4ccc(C)cc4)c3c[n+]1CC2 [4d, 2,3,10-Trimethoxy-9-p-tolylformylmethylenoxy protoberberine chloride] | 44.2 | > 47.8 | > 15.9 | 44.2 |  | 50.0 |  |  |  |  | 
COc1cc2c(cc1OC)-c1cc3ccc(OC)c(O)c3c[n+]1CC2 [compound 3] | 135 | 132 | 121 | 102 | decreased activity | 254 |  |  |  |  | 
COc1cccc(C(=O)COc2c(OC)ccc3cc4[n+](cc23)CCc2cc3c(cc2-4)OCO3)c1 [2f, 2,3-Methylenedioxy-9-m-methoxyphenylformylmethylenoxy-10-methoxy protoberberine chloride] | 2.21 | 1.85 | > 5.33 | 1.61 |  | 9.22 |  |  |  |  | 
COc1ccc2cc3[n+](cc2c1OCC(=O)O)CCc1cc2c(cc1-3)OCO2 [2d-a, 2,3-Methylenedioxy-9-carboxylmethylenoxy-10-methoxy protoberberine chloride] | 145 | > 145 | > 145 | 145 | complete loss on the antivirus potency | 437 |  |  |  |  | 
COc1cc2c(cc1OC)-c1cc3ccc(OC)c(OCC(=O)c4ccc(C(F)(F)F)cc4)c3c[n+]1CC2 [4f, 2,3,10-Trimethoxy-9-p-trifloromethylphenylformylmethylenoxy protoberberine chloride] | 66 | 82.2 | 82.2 | 54.2 |  | 306 |  |  |  |  | 
COc1ccc2cc3[n+](cc2c1OCC(=O)OCC(C)C)CCc1cc2c(cc1-3)OCO2 [2b, 2,3-Methylenedioxy-9-isobutyloxyformylmethylenoxy-10-methoxy protoberberine chloride] | 2.04 | 5.46 | > 5.34 | 5.73 |  | 22.3 |  |  |  |  | 
COc1cc2c(cc1O)CC[n+]1cc3c(OC)c(OC)ccc3cc1-2 [JTH, jatrorrhizine, reference compound] |  |  |  |  | decreased activity | 255 |  | > 147 | 147 | > 147 | 147
COc1ccc2cc3[n+](cc2c1OCC(=O)C(C)(C)C)CCc1cc2c(cc1-3)OCO2 [2c, 2,3-Methylenedioxy-9-pivalylmethylenoxy-10-methoxy protoberberine chloride] | 4.26 | 8.59 | 13.8 | 7.26 |  | 27.9 |  |  |  |  | 
COc1ccc2cc3[n+](cc2c1OCC(=O)c1ccc(C(F)(F)F)cc1)CCc1cc2c(cc1-3)OCO2 [2g, 2,3-Methylenedioxy-9-p-trifloromethylphenylformylmethylenoxy-10-methoxy protoberberine chloride] | 10.6 | 12.3 | 15.8 | 11.9 |  | 54.9 |  |  |  |  | 
COc1cc2c(cc1OC)-c1cc3ccc(OC)c(OC(=O)OCc4ccccc4)c3c[n+]1CC2 [4g, 2,3,10-Trimethoxy-9-benzyloxyformyloxy protoberberine chloride] | > 143 | > 143 | > 143 | 129 |  | 351 |  |  |  |  | 

Continued, in another order:

IC50 [1, 5] [µM] | IC50 [2, 5] [µM] | IC50 [3, 5] [µM] | IC50 [4, 5] [µM] | Compound | anti-EV71 activity against H strain, in words ([3]; Vero cells) | TC50 (median toxic concentration) (Vero cells) [µM] | cytotoxicity, in words (Vero cells) | IC50 ([1]; EV71, Vero) [µM] | IC50 ([2]; EV71, Vero) [µM] | IC50 ([3]; EV71, Vero) [µM] | IC50 ([4]; EV71, Vero) [µM]
25.4 | 68.4 | 40.4 | 27 | COc1cc2c(cc1OCC(=O)c1ccc(C(F)(F)F)cc1)CC[n+]1cc3c(OC)c(OC)ccc3cc1-2 [5f, 2,9,10-Trimethoxy-3-p-trifloromethylphenylformylmethylenoxy protober berine chloride] | partially or completely lost | 143 |  |  |  |  | 
9.2 | 9.13 | 10.4 | 8.69 | COc1cccc(C(=O)COc2cc3c(cc2OC)-c2cc4ccc(OC)c(OC)c4c[n+]2CC3)c1 [5e, 2,9,10-Trimethoxy-3-m-methoxyphenylformylmethylenoxy protoberberine chloride] | ideal activities compared with BBR | 27.6 | high cytotoxicity |  |  |  | 
34.2 | 69.3 | 41.3 | 34.2 | COc1cc2c(cc1OCC(=O)C(C)(C)C)CC[n+]1cc3c(OC)c(OC)ccc3cc1-2 [5b, 2,9,10-Trimethoxy-3-pivalylmethylenoxy protoberberine chloride] |  | 83.3 |  |  |  |  | 
125 | 144 | 130 | 109 | CCOC(=O)COc1cc2c(cc1OC)-c1cc3ccc(OC)c(OC)c3c[n+]1CC2 [5a, 2,9,10-Trimethoxy-3-ethyloxyformylmethylenoxy protoberberine chloride] |  | 250 |  |  |  |  | 
44.1 | 123 | 93.7 | 101 | COc1cc2c(cc1OCC(=O)OCc1ccccc1)CC[n+]1cc3c(OC)c(OC)ccc3cc1-2 [5c, 2,9,10-Trimethoxy-3-benzyloxyformylmethylenoxy protoberberine chloride] |  | 248 |  |  |  |  | 
